Measured values from US20240228463A1, “SODIUM CHANNEL INHIBITORS AND METHODS OF DESIGNING SAME” (Genentech, Inc., priority 2021, published 2024).

Target: T1, hNaV1.7 (Homo sapiens, UniProt Q15858)
T1 construct: expressed in transfected cells
Test: Patch voltage clamp electrophysiology (EP), Syncropatch 384PE, Nav1.7 in CHO cells;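 note: Nav1.7 stably expressed from cDNA in CHO cells, holding potential of −50 mV kept for the entire experiment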
Type: cell-based
Details: holding potential −50 mV, inhibition based on 7.5 min compound incubation, read-out: hNaV1.7 EP_SP

T1 sequence (Q15858 1-1977 isoform Q15858-3): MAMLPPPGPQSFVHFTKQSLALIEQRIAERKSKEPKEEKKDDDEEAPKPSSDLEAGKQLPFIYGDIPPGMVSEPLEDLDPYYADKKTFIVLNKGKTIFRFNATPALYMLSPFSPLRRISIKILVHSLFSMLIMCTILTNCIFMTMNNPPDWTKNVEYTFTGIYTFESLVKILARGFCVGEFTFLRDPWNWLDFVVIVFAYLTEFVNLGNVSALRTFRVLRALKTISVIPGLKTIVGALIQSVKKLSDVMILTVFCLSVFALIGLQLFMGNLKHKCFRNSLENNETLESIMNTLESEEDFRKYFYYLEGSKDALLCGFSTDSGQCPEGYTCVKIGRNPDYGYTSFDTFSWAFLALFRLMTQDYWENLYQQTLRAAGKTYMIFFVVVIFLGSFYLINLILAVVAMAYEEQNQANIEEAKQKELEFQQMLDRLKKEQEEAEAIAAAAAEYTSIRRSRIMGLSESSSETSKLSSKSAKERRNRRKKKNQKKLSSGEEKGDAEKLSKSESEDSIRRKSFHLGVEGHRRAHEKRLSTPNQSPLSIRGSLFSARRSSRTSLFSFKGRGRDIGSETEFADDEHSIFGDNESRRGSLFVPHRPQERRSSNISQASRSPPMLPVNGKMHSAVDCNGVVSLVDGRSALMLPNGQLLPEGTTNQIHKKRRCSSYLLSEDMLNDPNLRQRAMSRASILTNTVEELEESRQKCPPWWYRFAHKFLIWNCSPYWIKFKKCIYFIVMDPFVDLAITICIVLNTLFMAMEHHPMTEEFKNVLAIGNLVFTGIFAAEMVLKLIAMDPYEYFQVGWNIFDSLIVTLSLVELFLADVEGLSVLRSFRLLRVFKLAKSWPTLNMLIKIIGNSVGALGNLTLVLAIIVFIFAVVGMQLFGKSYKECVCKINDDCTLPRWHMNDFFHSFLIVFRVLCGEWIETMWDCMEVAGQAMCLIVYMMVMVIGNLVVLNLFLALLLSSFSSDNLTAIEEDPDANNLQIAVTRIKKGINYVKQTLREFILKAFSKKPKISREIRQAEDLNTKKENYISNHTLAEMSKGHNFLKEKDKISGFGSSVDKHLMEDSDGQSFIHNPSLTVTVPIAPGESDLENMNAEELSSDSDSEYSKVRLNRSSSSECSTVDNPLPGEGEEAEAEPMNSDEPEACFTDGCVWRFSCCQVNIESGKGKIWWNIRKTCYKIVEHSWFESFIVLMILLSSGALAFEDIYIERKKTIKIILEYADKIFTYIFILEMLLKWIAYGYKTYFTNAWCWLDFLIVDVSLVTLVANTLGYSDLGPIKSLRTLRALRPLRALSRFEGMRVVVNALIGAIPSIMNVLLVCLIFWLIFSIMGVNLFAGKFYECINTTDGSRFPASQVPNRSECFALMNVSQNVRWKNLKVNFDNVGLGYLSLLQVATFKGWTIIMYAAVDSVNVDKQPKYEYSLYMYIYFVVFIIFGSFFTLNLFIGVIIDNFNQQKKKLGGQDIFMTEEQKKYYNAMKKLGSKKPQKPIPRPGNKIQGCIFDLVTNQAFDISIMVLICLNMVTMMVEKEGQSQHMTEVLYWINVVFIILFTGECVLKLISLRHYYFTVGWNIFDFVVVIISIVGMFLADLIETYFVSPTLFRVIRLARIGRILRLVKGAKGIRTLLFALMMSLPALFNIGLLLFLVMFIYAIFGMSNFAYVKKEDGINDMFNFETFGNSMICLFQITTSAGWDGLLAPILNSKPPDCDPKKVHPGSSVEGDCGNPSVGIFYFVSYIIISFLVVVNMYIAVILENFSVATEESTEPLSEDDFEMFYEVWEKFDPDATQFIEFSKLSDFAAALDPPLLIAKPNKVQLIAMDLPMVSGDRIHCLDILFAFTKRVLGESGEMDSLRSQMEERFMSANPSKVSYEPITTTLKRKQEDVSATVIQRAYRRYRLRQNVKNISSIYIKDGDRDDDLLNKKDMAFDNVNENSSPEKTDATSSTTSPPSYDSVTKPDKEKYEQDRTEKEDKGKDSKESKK

| Compound | IC50 [nM] |
| --- | --- |
| CN1CC(OC2CCN(S(=O)(=O)NC(=O)c3cc(Cl)c(Oc4ccc(Cl)c(C(F)(F)F)c4)cc3F)CC2)C1 [Example 239, 5-chloro-4-(4-chloro-3-(trifluoromethyl)phenoxy)-2-fluoro-N-((4-((1-methylazetidin-3-yl)oxy)piperidin-1-yl)sulfonyl)benzamide] | 25 |
| O=C(NS(=O)(=O)c1ccc(OCc2ccccc2Cl)cc1)c1cc(Cl)c(OCC2CCCC2)cc1F [Example 264, 5-chloro-N-((4-((2-chlorobenzyl)oxy)phenyl)sulfonyl)-4-(cyclopentylmethoxy)-2-fluorobenzamide] | 84 |
| O=C(NS(=O)(=O)N1CCC(CC2CNC2)CC1)c1cc(Cl)c(OCC2CCCC2)cc1F [Example 40, N-((4-(azetidin-3-ylmethyl)piperidin-1-yl)sulfonyl)-5-chloro-4-(cyclopentylmethoxy)-2-fluorobenzamide 2,2,2-trifluoroacetate] | 59 |
| O=C(NS(=O)(=O)N1CCC(OC2CN(C3CC3)C2)CC1)c1cc(Cl)c(OCC2CCCC2)cc1F [Example 12, 5-chloro-4-(cyclopentylmethoxy)-N-((4-((1-cyclopropylazetidin-3-yl)oxy)piperidin-1-yl)sulfonyl)-2-fluorobenzamide] | 29 |
| CN(C)[C@H]1CCCC[C@@H]1Oc1ccc(S(=O)(=O)Nc2nc3ccc(OCC4CCCC4)cc3s2)c(F)c1 [Example 97, N-(6-(cyclopentylmethoxy)benzo[d]thiazol-2-yl)-4-(((1S,2S)-2-(dimethyl-amino)cyclohexyl)oxy)-2-fluorobenzenesulfonamide] | 20 |
| CN1CCCC(OC2CCN(S(=O)(=O)NC(=O)c3cc(Cl)c(OCC4CCCC4)cc3F)CC2)C1 (stereo not shown) [Example 52, 5-chloro-4-(cyclopentylmethoxy)-2-fluoro-N-((4-((1-methylpiperidin-3-yl)oxy)piperidin-1-yl)sulfonyl) benzamide] | 170 |
| O=C(NS(=O)(=O)N1CCCc2cccnc21)c1cc(Cl)c(OCC2CCCC2)cc1F [Example 15, 5-chloro-4-(cyclopentylmethoxy)-N-((3,4-dihydro-1,8-naphthyridin-1(2H)-yl)sulfonyl)-2-fluorobenzamide] | 110 |
| O=C(NS(=O)(=O)N1CCc2ccccc2C1)c1cc(Cl)c(OCC2CCCC2)cc1F [Example 19, 5-chloro-4-(cyclopentylmethoxy)-N-((3,4-dihydroisoquinolin-2(1H)-yl)sulfonyl)-2-fluorobenzamide] | 310 |

Now from value to compound:

| IC50 [nM] | Compound |
| --- | --- |
| 590 | NC(=O)[C@@H]1Cc2cc(S(=O)(=O)NC(=O)c3cc(Cl)c(OCC4CCCC4)cc3F)ccc2O1 [Example 277, (S)-5-(N-(5-chloro-4-(cyclopentylmethoxy)-2-fluorobenzoyl)sulfamoyl)-2,3-dihydrobenzofuran-2-carboxamide] |
| 100 | COc1cccc(COc2ccc(S(=O)(=O)NC(=O)c3cc(Cl)c(OCC4CCCC4)cc3F)cc2)c1 [Example 308, 5-chloro-4-(cyclopentylmethoxy)-2-fluoro-N-((4-((3-methoxybenzyl)oxy)phenyl)sulfonyl)benzamide] |
| 130 | O=C(NS(=O)(=O)CC1Cc2ccccc2C1)c1cc(Cl)c(OCC2CCCC2)cc1F [Example 266, 5-chloro-4-(cyclopentylmethoxy)-N-(((2,3-dihydro-1H-inden-2-yl)methyl)sulfonyl)-2-fluorobenzamide] |
| 3.2 | NCc1cccc(COc2ccc(S(=O)(=O)NC(=O)c3cc(Cl)c(OCC4CCCC4)cc3F)cc2)c1 [Example 300, N-((4-((3-(aminomethyl)benzyl)oxy)phenyl)sulfonyl)-5-chloro-4-(cyclopentylmethoxy)-2-fluorobenzamide] |
| 170 | COc1cc(COc2ccc(S(=O)(=O)NC(=O)c3cc(Cl)c(OCC4CCCC4)cc3F)cc2)cc(OC)c1 [Example 306, 5-chloro-4-(cyclopentylmethoxy)-N-((4-((3,5-dimethoxy-benzyl)oxy)phenyl)sulfonyl)-2-fluorobenzamide] |
